Laboratory results published in US20090130239A1, “METHOD FOR PREVENTING OR TREATING EDEMA OR DERMATITIS USING GLEHNIA LITTORALIS FR. SCHMIDT ET MIQUEL EXTRACT” (Korea Institute of Oriental Medicine, priority 2007, published 2009).

Test system: TPA induced immune cell infiltration and epidermal hyperproliferation
Test: Histopathological analysis of ear tissues (H&E), TPA induced acute dermatitis
Format: in vivo, mouse
Conditions: ear tissue, 6 hours after TPA, extract 400 mg/kg, indomethacin 10 mg/kg, compared with TPA treated group
Description: C57BL/6J male mouse at 5 weeks (DAE HAN BIOLINK CO., LTD.), the most widely used inflammation animal model, was adapted to the experimental environment for 1 week. Total 40 mice were group into 4 (10 mice per each group). TPA (12-O-Tetrade-canoylphobol 13-acetate) was locally applied (2.5 ug/20 ul acetone) to the right ears of 6 week old mice to induce edema and dermatitis. The left ears of the mice were used as the negative control, to which an excipient (20 ul of acetone) was treated. The experimental group was treated with Glehnia littoralis Fr. Schmidt et Miquel extract (400 mg/kg) by intraperitoneal injection one hour before TPA treatment. The positive control group was administered with indomethacin (10 mg/kg) one hour before TPA treatment and the negative control was administered with saline by the same manner.
Inflammation was induced for 6 hours by the same manner as described in Experimental Example <1-1> and then the animal was sacrificed. […] In the […], edema and inflammation accompanying symptoms of migration and infiltration of polymorphonuclear leukocytes were induced. In the meantime, in the experimental group (C) administered with Glehnia littoralis Fr. […]

In the case of `COc1ccc2c(c1)c(CC(=O)O)c(C)n2C(=O)c1ccc(Cl)cc1` [indomethacin], the “infiltration of immune cells and epidermal hyperproliferation” value is reported as “inhibition”.
